Reference: ChEMBL document CHEMBL5154819 (Eur J Med Chem, 2022)

Assays:
[1] = tested on: Mus musculus; experiment: Analgesic activity in iv dosed ICR mouse assessed as reduction in acetic acid induced writhing administered for 15 mins followed by acetic acid injection and measured within 15 mins; format: functional; conditions: 0.5 h, time 30 min
[2] = organism: Rattus norvegicus; experiment: Anti-hyperalgesic activity in carrageenan-induced mechanical hyperalgesia Sprague-Dawley rat model assessed as paw withdrawal threshold measured after 2.5 hrs by paw pressure test; format: functional
[3] = organism: Rattus norvegicus; experiment: Antiinflammatory activity in carrageenan-induced Sprague-Dawley rat assessed as paw withdrawal threshold measured after 2.5 hrs by paw pressure test; format: functional
[4] = tested on: Mus musculus; experiment: Analgesic activity in acetic acid induced ICR mouse assessed as average writhing times at 0.13 mg/kg, iv administered for 15 mins followed by acetic acid injection and measured within 15 mins (reference value: 21.1 +/- 16.3); format: functional; conditions: time 30 min, 0.5 h
[5] = tested on: Mus musculus; experiment: Analgesic activity in acetic acid induced ICR mouse assessed as average writhing times at 0.25 mg/kg, iv administered for 15 mins followed by acetic acid injection and measured within 15 mins (reference value: 21.1 +/- 16.3); format: functional; conditions: time 30 min, 0.5 h
[6] = tested on: Mus musculus; experiment: Analgesic activity in acetic acid induced ICR mouse assessed as average writhing times at 0.50 mg/kg, iv administered for 15 mins followed by acetic acid injection and measured within 15 mins (reference value: 21.1 +/- 16.3); format: functional; conditions: dose 0.5 mg/kg, time 30 min
[7] = tested on: Mus musculus; experiment: Analgesic activity in acetic acid induced ICR mouse assessed as average writhing times at 1 mg/kg, iv administered for 15 mins followed by acetic acid injection and measured within 15 mins (reference value: 21.1 +/- 16.3); format: functional; conditions: time 30 min, 0.5 h
[8] = tested on: Mus musculus; experiment: Antinociceptive activity in acetic acid induced ICR mouse assessed as inhibition effect at 0.13 mg/kg, iv administered for 15 mins followed by acetic acid injection and measured within 15 mins; format: functional; conditions: 0.5 h, time 30 min
[9] = tested on: Mus musculus; experiment: Antinociceptive activity in acetic acid induced ICR mouse assessed as inhibition effect at 0.25 mg/kg, iv administered for 15 mins followed by acetic acid injection and measured within 15 mins; format: functional; conditions: 0.5 h, time 30 min
[10] = tested on: Mus musculus; experiment: Antinociceptive activity in acetic acid induced ICR mouse assessed as inhibition effect at 0.50 mg/kg, iv administered for 15 mins followed by acetic acid injection and measured within 15 mins; format: functional; conditions: 0.5 h, time 30 min
[11] = tested on: Mus musculus; experiment: Antinociceptive activity in acetic acid induced ICR mouse assessed as inhibition effect at 1 mg/kg, iv administered for 15 mins followed by acetic acid injection and measured within 15 mins; format: functional; conditions: 0.5 h, time 30 min
[12] = Drug metabolism in Sprague-Dawley rat plasma assessed as trans-(S)-2-(4-(((1S,2R)-2-Hydroxycyclopentyl)methyl)phenyl)propanoic acid metabolite formation at 3 mg/kg, iv measured after 2 hrs by UHPLC-MS/MS analysis; format: ADME, organism-based; conditions: in vivo
[13] = Drug metabolism in Sprague-Dawley rat plasma assessed as cis-(R)-2-(4-(((1R,2R)-2-Hydroxycyclopentyl)methyl)phenyl)propanoic acid metabolite formation at 3 mg/kg, iv measured after 2 hrs by UHPLC-MS/MS analysis; format: ADME, organism-based; conditions: in vivo
[14] = Drug metabolism in Sprague-Dawley rat plasma assessed as cis-(R)-2-(4-(((1S,2S)-2-hydroxycyclopentyl)methyl)phenyl)propanoic acid metabolite formation at 3 mg/kg, iv measured after 2 hrs by UHPLC-MS/MS analysis; format: ADME, organism-based; conditions: in vivo
[15] = Drug metabolism in Sprague-Dawley rat plasma assessed as trans-(R)-2-(4-(((1S,2R)-2-Hydroxycyclopentyl)methyl)phenyl)propanoic acid metabolite formation at 3 mg/kg, iv measured after 2 hrs by UHPLC-MS/MS analysis; format: ADME, organism-based; conditions: in vivo
[16] = Drug metabolism in Beagle dog plasma assessed as cis-(R)-2-(4-(((1R,2R)-2-Hydroxycyclopentyl)methyl)phenyl)propanoic acid metabolite formation at 3 mg/kg, iv measured after 2 hrs by UHPLC-MS/MS analysis; format: ADME, organism-based, Canis lupus familiaris; conditions: in vivo
[17] = Drug metabolism in Beagle dog plasma assessed as cis-(R)-2-(4-(((1S,2S)-2-hydroxycyclopentyl)methyl)phenyl)propanoic acid metabolite formation at 3 mg/kg, iv measured after 2 hrs by UHPLC-MS/MS analysis; format: ADME, organism-based, Canis lupus familiaris; conditions: in vivo
[18] = Drug metabolism in Beagle dog plasma assessed as trans-(R)-2-(4-(((1S,2R)-2-Hydroxycyclopentyl)methyl)phenyl)propanoic acid metabolite formation at 3 mg/kg, iv measured after 2 hrs by UHPLC-MS/MS analysis; format: ADME, organism-based, Canis lupus familiaris; conditions: in vivo
[19] = Plasma protein binding in Sprague-Dawley rat at 600 to 15000 ng/ml measured after 6 hrs by LC-MS/MS analysis; format: ADME, cell-free; conditions: dose 600-15000 ng/ml, read-out: PPB
[20] = Plasma protein binding in CD-1 mouse at 600 to 15000 ng/ml measured after 6 hrs by LC-MS/MS analysis; format: ADME, cell-free; conditions: dose 600-15000 ng/ml, read-out: PPB
[21] = Plasma protein binding in Beagle dog at 600 to 15000 ng/ml measured after 6 hrs by LC-MS/MS analysis; format: ADME, cell-free, Canis lupus familiaris; conditions: dose 600-15000 ng/ml, read-out: PPB
[22] = Plasma protein binding in cynomolgus monkey at 600 to 15000 ng/ml measured after 6 hrs by LC-MS/MS analysis; format: ADME, cell-free, Macaca fascicularis; conditions: dose 600-15000 ng/ml, read-out: PPB
[23] = Plasma protein binding in human at 600 to 15000 ng/ml measured after 1 to 8 hrs by LC-MS/MS analysis; format: ADME, cell-free; conditions: dose lower 600 ng/ml, time lower 1 hrs, dose upper 15000 ng/ml, time upper 8 hrs, read-out: PPB
[24] = Toxicity in male Sprague-Dawley rat assessed as decrease in RBC level at 10 mg/kg , iv administered every day for 4 weeks; format: organism-based, Erythrocyte; set-up: scale not given: the % may be the effect or the level left; conditions: in vivo, 672 h
[25] = Toxicity in female Sprague-Dawley rat assessed as decrease in RBC level at 10 mg/kg , iv administered every day for 4 weeks; format: organism-based, Erythrocyte; set-up: scale not given: the % may be the effect or the level left; conditions: in vivo, 672 h
[26] = Toxicity in male Sprague-Dawley rat assessed as decrease in hemoglobin level at 10 mg/kg , iv administered every day for 4 weeks; format: organism-based; set-up: scale not given: the % may be the effect or the level left; conditions: in vivo, 672 h
[27] = Toxicity in female Sprague-Dawley rat assessed as decrease in hemoglobin level at 10 mg/kg , iv administered every day for 4 weeks; format: organism-based; set-up: scale not given: the % may be the effect or the level left; conditions: in vivo, 672 h
[28] = Toxicity in Sprague-Dawley rat assessed as change in red cell distribution width at 10 mg/kg , iv administered every day for 4 weeks; format: organism-based; conditions: in vivo, 672 h
[29] = Toxicity in Sprague-Dawley rat assessed as change in mean corpuscular hemoglobin concentration at 10 mg/kg , iv administered every day for 4 weeks; format: organism-based; conditions: in vivo, 672 h
[30] = Toxicity in Sprague-Dawley rat assessed as effect on reticulocytes at 10 mg/kg , iv administered every day for 4 weeks; format: organism-based; conditions: in vivo, 672 h
[31] = Toxicity in Sprague-Dawley rat assessed as change in RBC level at 10 mg/kg , iv administered every day for 4 weeks and measured after 8 weeks; format: organism-based, Erythrocyte; conditions: in vivo, 1344 h
[32] = Toxicity in Sprague-Dawley rat assessed as change in hemoglobin level at 10 mg/kg , iv administered every day for 4 weeks and measured after 8 weeks; format: organism-based; conditions: in vivo, 1344 h
[33] = Toxicity in Sprague-Dawley rat assessed as red cell distribution width at 10 mg/kg , iv administered every day for 4 weeks and measured after 8 weeks; format: organism-based; conditions: in vivo, 1344 h
[34] = Toxicity in Sprague-Dawley rat assessed as change in mean corpuscular hemoglobin concentration at 10 mg/kg , iv administered every day for 4 weeks and measured after 8 weeks; format: organism-based; conditions: in vivo, 1344 h
[35] = Toxicity in Sprague-Dawley rat assessed as effect on reticulocytes at 10 mg/kg , iv administered every day for 4 weeks and measured after 8 weeks; format: organism-based; conditions: in vivo, 1344 h
[36] = Toxicity in Beagle dog assessed as change in RBC level at 10 mg/kg , iv administered every day for 4 weeks; format: organism-based, Canis lupus familiaris, Erythrocyte; conditions: in vivo, 672 h
[37] = Toxicity in Beagle dog assessed as change in hemoglobin level at 10 mg/kg , iv administered every day for 4 weeks; format: organism-based, Canis lupus familiaris; conditions: in vivo, 672 h
[38] = Toxicity in Beagle dog assessed as change in red cell distribution width at 10 mg/kg , iv administered every day for 4 weeks; format: organism-based, Canis lupus familiaris; conditions: in vivo, 672 h
[39] = Toxicity in Beagle dog assessed as change in mean corpuscular hemoglobin concentration at 10 mg/kg , iv administered every day for 4 weeks; format: organism-based, Canis lupus familiaris; conditions: in vivo, 672 h
[40] = Toxicity in Beagle dog assessed as effect on reticulocytes at 10 mg/kg, iv administered every day for 4 weeks; format: organism-based, Canis lupus familiaris; conditions: in vivo, 672 h
[41] = Toxicity in NZW rabbit assessed as infiltration of inflammatory cells at 10 mg/kg/day, iv administered once daily for 7 days and measured after 3 to 14 days by H and E staining based optical microscopy analysis; format: organism-based, Oryctolagus cuniculus; conditions: in vivo, time 3-14 day
[42] = Toxicity in NZW rabbit assessed as necrosis in endothelial cells at 10 mg/kg/day, iv administered once daily for 7 days and measured after 3 to 14 days by H and E staining based optical microscopy analysis; format: organism-based, Oryctolagus cuniculus; conditions: in vivo, time 3-14 day
[43] = Solubility of the compound in pre-warmed distilled water at 500 mg measured after 30 mins by HPLC analysis; format: physicochemical

`C[C@H](C(=O)O)c1ccc(C[C@H]2CCC[C@@H]2O)cc1.NC(CO)(CO)CO` showed an ED50 [1] of 0.43 mg/kg, an ED50 [2] of 1.28 mg/kg and an ED50 [3] of 8.01 mg/kg. It also gave an Activity [4] of 19, an Activity [5] of 12.8 and an Activity [6] of 7.7. For the same compound, the Activity [7] was 6.7, the inhibition in vivo at 0.13 mg/kg [8] was 10% and the inhibition in vivo at 0.25 mg/kg [9] was 39.3%. For the same compound, the inhibition in vivo at 0.5 mg/kg [10] was 63.5%, the inhibition in vivo at 1 mg/kg [11] was 68.2% and the Drug metabolism [12] was “Metabolite_Notdetected”. For the same compound, the Drug metabolism [13] was “Metabolite_Notdetected”, the Drug metabolism [14] was “Metabolite_Notdetected” and the Drug metabolism [15] was “Metabolite_Notdetected”. For the same compound, the Drug metabolism [16] was “Metabolite_Notdetected”, the Drug metabolism [17] was “Metabolite_Notdetected” and the Drug metabolism [18] was “Metabolite_Notdetected”. It also gave a fraction unbound at 6 h [19] of under 0.3, a fraction unbound at 6 h [20] of under 0.3 and a fraction unbound at 6 h [21] of under 0.3. The fraction unbound at 6 h [22] was under 0.3, the fraction unbound [23] was under 0.05 and the Activity [24] was under 10%. The Activity [25] was under 10%, the Activity [26] was under 10% and the Activity [27] was under 10%. The Activity [28] was “Non-Toxic”, the Activity [29] was “Non-Toxic” and the Activity [30] was “Non-Toxic”. For the same compound, the Activity [31] was “Non-Toxic”, the Activity [32] was “Non-Toxic” and the Activity [33] was “Non-Toxic”. For the same compound, the Activity [34] was “Non-Toxic”, the Activity [35] was “Non-Toxic” and the Activity [36] was “Non-Toxic”. The Activity [37] was “Non-Toxic”, the Activity [38] was “Non-Toxic” and the Activity [39] was “Non-Toxic”. For the same compound, the Activity [40] was “Non-Toxic”, the Activity [41] was “Non-Toxic” and the Activity [42] was “Non-Toxic”. For the same compound, the solubility at 0.5 h [43] was 176 mg/mL.
